In the supplement of paper PMC11061612:

Key:
Assay in all cases: Bliss excess, mean over the matrix (fraction); higher = more synergy
[1] = tested on: 639-V (Bladder Carcinoma)
Summary of the method: (§1)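 Bliss excess equals the observed combination effect minus the expected value EA + EB − EA·EB, where EA and EB are the effects of each agent alone. Combination Emax is the second-highest inhibition within the matrix. Inhibition was scaled from CellTiter-Glo 2.0 luminescence, with 0 set by vehicle wells and 1 by blank wells, after 72 hours of two-drug dosing of cells plated in 1536-well plates.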

[2] = tested on: 8305C (Thyroid Gland Carcinoma)
Summary of the method: as §1

[3] = tested on: CAL-51 (Breast Carcinoma)
Summary of the method: as §1

[4] = tested on: CTB-1 (B-Cell Non-Hodgkin's Lymphoma)
Summary of the method: as §1

[5] = tested on: EN (Endometrial Carcinoma)
Summary of the method: as §1

[6] = tested on: HDLM-2 (Hodgkin's Lymphoma)
Summary of the method: as §1

[7] = tested on: LU-139 (Small Cell Lung Carcinoma)
Summary of the method: as §1

[8] = tested on: LoVo (Colorectal Carcinoma)
Summary of the method: as §1

[9] = tested on: MDA-MB-468 (Breast Carcinoma)
Summary of the method: as §1

[10] = tested on: MHH-PREB-1 (B-Cell Non-Hodgkin's Lymphoma)
Summary of the method: as §1

Mewo (Melanoma) = tested on: Mewo (Melanoma)
Summary of the method: as §1

NCI-H2461 (Mesothelioma) = tested on: NCI-H2461 (Mesothelioma)
Summary of the method: as §1

NCI-H28 (Mesothelioma) = tested on: NCI-H28 (Mesothelioma)
Summary of the method: as §1

[11] = tested on: NCI-H747 (Colorectal Carcinoma)
Summary of the method: as §1

[12] = tested on: OVCAR-8 (Ovarian Carcinoma)
Summary of the method: as §1

[13] = tested on: PCI-30 (Head and Neck Carcinoma)
Summary of the method: as §1

[14] = tested on: RPMI-6666 (Non-Cancerous)
Summary of the method: as §1

[15] = tested on: SU-DHL-6 (B-Cell Non-Hodgkin's Lymphoma)
Summary of the method: as §1

[16] = tested on: SUP-T1 (T-Lymphoblastic Leukemia)
Summary of the method: as §1

[17] = tested on: UMC-11 (Other Solid Carcinomas)
Summary of the method: as §1

SMILES	Bliss excess [1]	Bliss excess [2]	Bliss excess [3]	Bliss excess [4]	Bliss excess [5]	Bliss excess [6]	Bliss excess [7]	Bliss excess [8]	Bliss excess [9]	Bliss excess [10]	Bliss excess (Mewo (Melanoma))	Bliss excess (NCI-H2461 (Mesothelioma))	Bliss excess (NCI-H28 (Mesothelioma))	Bliss excess [11]	Bliss excess [12]	Bliss excess [13]	Bliss excess [14]	Bliss excess [15]	Bliss excess [16]	Bliss excess [17]
CC1(C)CCC(CN2CCN(c3ccc(C(=O)NS(=O)(=O)c4ccc(NCC5CCOCC5)c([N+](=O)[O-])c4)c(Oc4cnc5[nH]ccc5c4)c3)CC2)=C(c2ccc(Cl)cc2)C1 [Venetoclax] + Cc1cc2ncnn2cc1Nc1ncc2c(n1)n(C1CCOCC1)c(=O)n2C [AZD7648] (first compound max 1 µM, 7x7, partner max 10 µM)	-0.0501	-0.0293	-0.0323	-0.0638	-0.0233	0.0551	-0.0013	-0.0526	-0.0299	0.0028	-0.0181	-0.0954	-0.0166	-0.0124	-0.0014	-0.0545	-0.0477	0.049	-0.0109	-0.0465
CC1(C)CCC(CN2CCN(c3ccc(C(=O)NS(=O)(=O)c4ccc(NCC5CCOCC5)c([N+](=O)[O-])c4)c(Oc4cnc5[nH]ccc5c4)c3)CC2)=C(c2ccc(Cl)cc2)C1 [Venetoclax] + Cn1cnc2c(F)c(Nc3ccc(Br)cc3Cl)c(C(=O)NOCCO)cc21 [Selumetinib] (first compound max 1 µM, 7x7, partner max 3 µM)	0.0346	-0.0583	-0.0088	-0.0475	-0.0325	-0.0245	-0.0357	-0.0458	-0.0693	0.0028	-0.0252	-0.0175	-0.0449	-0.0489	-0.0373	-0.0429	0.0306	0.0155	-0.0723	-0.0424
